Experimental data taken from US4929751A, “Vinyl tricarbonyl compounds and methods of making the same” (Yale University, priority 1987, dated 1990).
Where two headings read alike, the source gives them in different places.

How the values were obtained:
Assay type in all cases: cell-based
[1] = test system: small cell lung cancer cell lines; experiment: disease category selectivity; conditions: SCLC
Description: (§1) As described below, the data in Table 1 serve to display the testing results on disease category selectivity in a bar graph format. Bars projecting to the right of the reference (vertical line of asterisks) indicate greater than average sensitivity to the test compound. Each bar represents one power of ten in sensitivity, so that the results for OVCAR-5 (ovarian tumor) indicate a remarkable […] increase in sensitivity over the reference test.
(§2) Table 1 reports and illustrates the results obtained by testing t-butyl 2,3-dioxo-pent-4-enoate hydrate. The concentration of this compound found to inhibit the growth of each cell line listed under "CELL" by 50% is reported under "LOG(IC50)" as the logarithm of the concentration. The units of concentration are either molarity in which case an "M" is shown in parentheses next to the LOG(IC50) label, or micrograms per ml, in which case a "W" (for weight) is shown in parenthesis. The cell line names are grouped by disease type and the disease type names are listed on the far left.
(§3) The graph on the right depicts the data on the left in a format called a "MEAN GRAPH" which is designed to aid in the identification of differential growth inhibition. […] The interest in using this concept of differential growth inhibition as a criterion of activity in the screening system is to encourage the discovery of new types of anticancer agents having greater tissue specificity than cancer chemotherapeutic agents in use today.
(§4) The idea for the Mean Graph resulted from trying to detect differential growth inhibition in a bar graph format Experimentation led to a graph centered at the arithmetic mean (ML) of the logarithm of the IC50'a of all the cell line responses measured for a compound. The Mean Graph is constructed around a vertical reference (indicating ML) by projecting bars to the right or to the left. […] The lengths of the bars are proportional to the differences between the logarithms of the specific cell line IC50's and the overall mean value ML. These lengths represent differences in logarithms which are equivalent to the ratios of the specific IC50's to the geometric mean of all the IC50's. Therefore, a useful property of the Mean Graph format is the ability to compare patterns derived from IC50's measured in different units, e.g, micrograms per ml and molarity. The units cancel in the division process.
(§5) Differential growth inhibition is depicted as a bar projecting some distance to the right of ML. A bar projecting three log units to the right of ML, for example, would reflect a cellular sensitivity 1000 times greater than ML. While any degree of sensitivity greater than ML might theoretically be considered differential growth inhibition, in practice one must consider the experimental error in the measurement and at what point the degree of differential growth inhibition becomes meaningful in biological terms. The three values listed a the bottom of the graph provide the value of ML as "AVE LOG(IC50)", the greatest difference from ML as "DELTA" and the difference between the least sensitive cell line and the most sensitive cell line as the "RANGE".

ovarian cell lines = experiment: disease category selectivity
Description: as §1, §2, §3, §4, §5

tumor cells = experiment: growth inhibition of tumor cells, whole panel (mean graph)
Description: (§6) t-Butyl 2,3-dioxo-pent-4-enoate hydrate (A) was contacted with various cell lines as indicated on Table 1 hereinbelow in the column designated as "CELL" or "TUMOR". […]
as §2, §3, §4, §5

[2] = test system: H524 (small cell lung cancer); experiment: growth inhibition of tumor cell line; conditions: Homo sapiens, NCI-H524
Description: as §6, §2

LOX (melanoma) = experiment: growth inhibition of tumor cell line
Description: as §6, §2

RPMI-7951 (melanoma) = experiment: growth inhibition of tumor cell line; conditions: Homo sapiens
Description: as §6, §2

K562 (leukemia) = experiment: growth inhibition of tumor cell line; conditions: Homo sapiens
Description: as §6, §2

MOLT-4 (LEU) = experiment: growth inhibition of tumor cell line; conditions: Homo sapiens, status R (not acceptable test)
Description: as §6, §2

OVCAR-4 (ovarian) = experiment: growth inhibition of tumor cell line; conditions: Homo sapiens, logarithm of the concentration inhibiting growth by 50%
Description: as §6, §2

DLD-1 (colon) = experiment: growth inhibition of tumor cell line; conditions: Homo sapiens
Description: as §6, §2

[3] = test system: A549 (nonsmall cell lung cancer); experiment: growth inhibition of tumor cell line; conditions: Homo sapiens, logarithm of the concentration inhibiting growth by 50%
Description: as §6, §2

LOVO (colon) = experiment: growth inhibition of tumor cell line; conditions: Homo sapiens
Description: as §6, §2

[4] = test system: TE-671 (central nervous system); experiment: growth inhibition of tumor cell line; conditions: Homo sapiens
Description: as §6, §2

SK-MEL2 (melanoma) = experiment: growth inhibition of tumor cell line; conditions: Homo sapiens
Description: as §6, §2

[5] = test system: MCF-7/ADR (resistant breast cancer); experiment: growth inhibition of tumor cell line; conditions: Homo sapiens
Description: as §6, §2

[6] = test system: DMS114 (small cell lung cancer); experiment: growth inhibition of tumor cell line; conditions: Homo sapiens
Description: as §6, §2

[7] = test system: H322 (nonsmall cell lung cancer); experiment: growth inhibition of tumor cell line; conditions: NCI-H322
Description: as §6, §2

[8] = test system: H69 (small cell lung cancer); experiment: growth inhibition of tumor cell line
Description: as §6, §2

[9] = test system: H23 (nonsmall cell lung cancer); experiment: growth inhibition of tumor cell line
Description: as §6, §2

[10] = mean LOG(IC50) of category, 5 cell lines, read-out: MEAN CAT (converted)
[11] = logarithm of the concentration inhibiting growth by 50%, read-out: LOG(IC50) (converted)

C=CC(=O)C(O)(O)C(=O)OC(C)(C)C [t-butyl 2,3-dioxo-pent-4-enoate hydrate]
DIFF CAT ([1]; difference from mean): 0 | IC50 [1, 10]: 79.4 µM | DIFF CAT (ovarian cell lines; difference from mean): -0.2 | IC50 (ovarian cell lines; [10]): 50.1 µM | IC50 (tumor cells; arithmetic mean of the logarithm of the IC50 of all cell lines, read-out: AV TC50 (AVE LOG(IC50), ML) (converted)): 74.1 µM | RANGE (tumor cells; difference between least and most sensitive cell line, log units): 2.3 | DELTA (tumor cells; greatest difference from ML, log units): 1.8 | IC50 (tumor cells; mean over the cell lines, read-out: IC-50 MEAN, NSC MEAN): 79.1 µM | IC50 (tumor cells; total cell lines used = 42, read-out: MEAN OF ALL LOGIC50'S (converted)): 100 µM | IC90 [2]: 189 µM | IC50 ([2]; H524, logarithm of the concentration inhibiting growth by 50%, read-out: LOG(IC50) (converted)): 39.8 µM | IC50 ([2]; read-out: IC-50 MEAN): 40.8 µM | IC90 (LOX (melanoma)): 258 µM | IC50 (LOX (melanoma); [11]): 100 µM | IC50 (LOX (melanoma); read-out: IC-50 MEAN): 102 µM | IC90 (RPMI-7951 (melanoma)): 178 µM | IC50 (RPMI-7951 (melanoma); RPMI-79, logarithm of the concentration inhibiting growth by 50%, read-out: LOG(IC50) (converted)): 79.4 µM | IC50 (RPMI-7951 (melanoma); read-out: IC-50 MEAN): 76.7 µM | IC90 (K562 (leukemia)): 225 µM | IC50 (K562 (leukemia); [11]): 100 µM | IC50 (K562 (leukemia); read-out: IC-50 MEAN): 90.3 µM | IC90 (MOLT-4 (LEU)): 244 µM | IC50 (OVCAR-4 (ovarian)): 251 µM | IC90 (DLD-1 (colon)): 187 µM | IC50 (DLD-1 (colon); [11]): 39.8 µM | IC50 (DLD-1 (colon); read-out: IC-50 MEAN): 38.4 µM | IC50 [3]: > 251 µM | IC90 (LOVO (colon); LoVo): 262 µM | IC50 (LOVO (colon); LoVo, read-out: IC-50 MEAN): 96.6 µM | IC50 (LOVO (colon); LOVO, logarithm of the concentration inhibiting growth by 50%, read-out: LOG(IC50) (converted)): 100 µM | IC90 [4]: 231 µM | IC50 [4, 11]: 126 µM | IC50 ([4]; read-out: IC-50 MEAN): 114 µM | IC90 (SK-MEL2 (melanoma); SK-MEL-2): 174 µM | IC50 (SK-MEL2 (melanoma); SK-MEL-2, logarithm of the concentration inhibiting growth by 50%, read-out: LOG(IC50) (converted)): 79.4 µM | IC50 (SK-MEL2 (melanoma); SK-MEL-2, read-out: IC-50 MEAN): 73.5 µM | IC50 ([5]; NCI/ADR-RES, MCF-7/ADR, read-out: IC-50 MEAN): 96 µM | IC50 ([5]; MCF-7/A, logarithm of the concentration inhibiting growth by 50%, read-out: LOG(IC50) (converted)): 100 µM | IC90 ([6]; DMS-114): 264 µM | IC50 ([6]; DMS-114, logarithm of the concentration inhibiting growth by 50%, read-out: LOG(IC50) (converted)): 126 µM | IC50 ([6]; DMS-114, read-out: IC-50 MEAN): 141 µM | IC90 [7]: 246 µM | IC50 ([7]; H322, logarithm of the concentration inhibiting growth by 50%, read-out: LOG(IC50) (converted)): 50.1 µM | IC50 ([7]; read-out: IC-50 MEAN): 48.7 µM | IC50 ([8]; H69, logarithm of the concentration inhibiting growth by 50%, read-out: LOG(IC50) (converted)): 100 µM | IC90 ([8]; Homo sapiens, NCI-H69): 269 µM | IC50 ([8]; Homo sapiens, NCI-H69, read-out: IC-50 MEAN): 95.5 µM | IC50 ([9]; H23, logarithm of the concentration inhibiting growth by 50%, read-out: LOG(IC50) (converted)): 50.1 µM | IC90 ([9]; Homo sapiens, NCI-H23): 197 µM | IC50 ([9]; Homo sapiens, NCI-H23, read-out: IC-50 MEAN): 52.7 µM
